Format in all cases: cell-based, Staphylococcus aureus
One assay relates to MRSA-171. Kind of assay: paper diffusion drug sensitivity test, MRSA-171. Conditions: for Zone of inhibition: MRSA-171, drug sensitive paper 30 μg/tablet, LB plate, 37° C., 24 h; for inhibitory effect (in words): multi-drug resistant Staphylococcus aureus 171, summary of FIGS. 1-3 and Table 1. The method, then:
[Worded in the source for another organism; this organism is reported under the same test.] (§1) The antimicrobial efficacy was determined by a paper diffusion drug sensitivity test.
(§2) Experimental strains: multi-resistant Staphylococcus aureus 206, multi-resistant Staphylococcus aureus 575, multi-resistant Staphylococcus aureus 596. The experimental strains were provided by Huashan Hospital Affiliated to Fudan University (Institute of Antibiotic of Fudan University).
(§3) Drug sensitive paper: The drug sensitive paper was a special drug sensitive paper with a diameter of 6.35 mm and a water absorption of 0.02 mL. The control drug was vancomycin (30 μg/tablet); the test drugs were pleuromulin (30 μg/tablet), ursodeoxycholic acid (30 μg/tablet) and pleuromulin ursodeoxycholic acid ester (30 μg/tablet).
(§4) The experimental strains were inoculated in non-selective medium and placed in air at 37° C. for 24 h. Pick a single colony that grows well and inoculate it into broth medium, incubate at 35° C.±2° C. for 6 hours, and use LA broth medium to calibrate the concentration of the bacterial solution to 0.5 Mie turbidimetric tube (1.5×10^8 CFU/mL). A bacterial suspension is obtained.
(§5) Weigh the LB dry powder, sterilize at 103.4 Kpa, 121.3° C. high-pressure steam for 15 min, and then put it in a 40° C.-50° C. water bath. Place a sterile empty plate (inner diameter 9 cm) on the surface of the ultra-clean table water table, shake and shake LB, and then pour the plate. The thickness of each plate is 3 mm to 4 mm. After the plate is cooled at room temperature, store it in the refrigerator at 2° C.-8° C. Use a sterile cotton swab to dip the bacterial solution, and evenly coat the surface of the LB plate 3 times. After inoculation of the bacterial suspension, the LB plate was dried at room temperature for 3 min to 5 min. Use sterile forceps to closely attach the antibacterial drug paper to the dish. Put the dish upside down and place it in a 37° C. incubator for 24 h. Observe the result and measure the diameter. Taking 0.5% DMSO solution as a negative control, the antibacterial activity is expressed by the diameter of the inhibition zone. The inhibition zone ≥17 mm, sensitive; the inhibition zone is 15 mm˜16 mm, intermediary; the inhibition zone ≤14 mm, drug resistance.

A further assay concerns MRSA-575. Description: paper diffusion drug sensitivity test, MRSA-575. The note with it: for Zone of inhibition: MRSA-575, drug sensitive paper 30 μg/tablet, LB plate, 37° C., 24 h; for inhibitory effect (in words): multi-drug resistant Staphylococcus aureus 575, summary of FIGS. 1-3 and Table 1. On the procedure:
as §1, §2, §3, §4, §5

A further assay deals with MRSA-596. Kind of assay: paper diffusion drug sensitivity test, MRSA-596. Conditions: for Zone of inhibition: MRSA-596, drug sensitive paper 30 μg/tablet, LB plate, 37° C., 24 h; for inhibitory effect (in words): multi-drug resistant Staphylococcus aureus 596, summary of FIGS. 1-3 and Table 1. On the procedure: as §1, §2, §3, §4, §5

SMILES strings stand for the structures.

Here are results for four molecules from patent publication US11186607B1, “Pleuromutilin ursodeoxycholic acid ester with antibacterial activity and a method of preparing the same” (Xi'an Taikomed Pharmaceutical Technology Co., Ltd., priority 2020, dated 2021).

`C[C@H](CCC(=O)O)[C@H]1CC[C@H]2[C@@H]3[C@@H](O)C[C@@H]4C[C@H](O)CC[C@]4(C)[C@H]3CC[C@]12C` [Ursodeoxycholic acid]: the Zone of inhibition in the assay with MRSA-171, in the assay with MRSA-575 and in the assay on MRSA-596 was 0 mm each time. The “inhibitory effect (in words)” value with MRSA-171, in the assay on MRSA-575 and with MRSA-596 was “no inhibitory effect” throughout.
On to `CN[C@H](CC(C)C)C(=O)N[C@H]1C(=O)N[C@@H](CC(N)=O)C(=O)N[C@H]2C(=O)N[C@H]3C(=O)N[C@H](C(=O)N[C@H](C(=O)O)c4cc(O)cc(O)c4-c4cc3ccc4O)[C@H](O)c3ccc(c(Cl)c3)Oc3cc2cc(c3O[C@@H]2O[C@H](CO)[C@@H](O)[C@H](O)[C@H]2O[C@H]2C[C@](C)(N)[C@H](O)[C@H](C)O2)Oc2ccc(cc2Cl)[C@H]1O` [Vancomycin], for which the figures for the Zone of inhibition with MRSA-171, in the assay with MRSA-575 and in the assay on MRSA-596 were 17 mm, 17 mm and 23 mm, respectively.
On to `C=C[C@]1(C)C[C@@H](OC(=O)COC(=O)CC[C@@H](C)[C@H]2CCC3[C@@H]4[C@@H](O)C[C@@H]5C[C@H](O)CC[C@]5(C)[C@H]4CC[C@@]32C)[C@]2(C)CC[C@@H](C)[C@@]3(CCC(=O)[C@@H]23)[C@@H](C)[C@@H]1O` (stereo partly drawn) [Pleuromulin ursodeoxycholic acid ester, (4R)-2-(((3aS,4R,5S,6S,8R,9R,9aR,12R)-5-hydroxy-4,6,9,12-tetramethyl-1-oxo-6-vinyldecahydro-3a,9-propanocyclopenta[8]annulen-8-yl)oxy)-2-oxoethyl 4-((3R,5 S,7 S, 8R,9 S, 10 S,13R,17R)-3,7-dihydroxy-10,13-dimethylhexadecahydro-1H-cyclopenta[a]phenanthren-17-yl)pentanoate], for which the Zone of inhibition with MRSA-171 is 11 mm; with MRSA-575 it was 13 mm; in the assay with MRSA-575 (listed as pleuromutilin ursodeoxycholic acid ester) it was “up to 13 mm”; with MRSA-596, 12 mm. Moreover, the “inhibitory effect (in words)” value in the assay with MRSA-171, with MRSA-575 and in the assay on MRSA-596 was “strong inhibitory effects” throughout.
In the case of `C=C[C@]1(C)C[C@@H](OC(=O)CO)[C@]2(C)[C@H](C)CC[C@]3(CCC(=O)[C@H]32)[C@@H](C)[C@@H]1O` [Pleuromulin], the Zone of inhibition in the assay on MRSA-171, with MRSA-575 and with MRSA-596 was 0 mm each time. In addition, the “inhibitory effect (in words)” value in the assay on MRSA-171, in the assay on MRSA-575 and in the assay with MRSA-596 was “no inhibitory effect” in each case.
